Data set [1] deals with Candida albicans. Nature of the data set: Antifungal activity against Candida albicans MY1055 in DBA/2 mouse candidiasis model assessed as change in CFU per gram of kidney at 12.5 mg/kg, po bid after 7 days by Target Organ Kidney Assay relative to sham treated control. Type of data set: functional.
The test system of data set [2] is Mus musculus. Nature of the data set: AUC (0 to 24 hrs) in DBA/2J mouse assessed as metabolite 13c at 10 mg/kg, po. Also on record: dose 10 mg/kg, time < 24 hr, route oral. Type of data set: ADME, organism-based. The conditions noted are these: in vivo.
Data set [3] relates to Candida albicans. Nature of the data set: Antifungal activity against Candida albicans MY1055 in DBA/2N mouse candidiasis model assessed as reduction of fungal burden after 7 days. Type of data set: functional. The following applies: MY1055, 168 h.
The subject of data set [4] is Mus musculus. Nature of the data set: AUC (0 to 24 hrs) in DBA/2J mouse assessed as total metabolites at 10 mg/kg, po. Type of data set: ADME, organism-based. The following applies: in vivo.
Data set [5] concerns Candida albicans. Nature of the data set: Antifungal activity against Candida albicans MY1055 in DBA/2N mouse candidiasis model assessed as mouse survival at 12.5 mg/kg, po bid after 7 days by Target Organ Kidney Assay relative to sham treated control. Type of data set: functional. The conditions noted are these: 168 h.
A further data set concerns Aspergillus fumigatus. Nature of the data set: Antifungal activity against Aspergillus fumigatus MF5668 after 24 hrs by liquid microdilution assay. The following applies: MF5668, 24 h, read-out: MEC. Type of data set: functional.
In data set [6] the test system is Mus musculus. Nature of the data set: Dose normalized AUC in orally dosed mouse. Type of data set: ADME, organism-based. The following applies: in vivo, po.
Data set [7] concerns Candida albicans. The experiment in a line: Antifungal activity against Candida albicans MY1055 after 24 hrs by liquid microdilution assay. Type of data set: functional. The conditions noted are these: MY1055, 24 h. On the technique in general: In broth dilution the organism is exposed to a series of concentrations in liquid medium.
In data set [8] the test system is Candida albicans. The experiment in a line: Antifungal activity against Candida albicans MY1055 in DBA/2 mouse candidiasis model assessed as change in CFU per gram of kidney at 12.5 mg/kg, ip bid after 7 days by Target Organ Kidney Assay relative to sham treated control. Type of data set: functional.
The subject of data set [9] is Candida albicans. The experiment in a line: Antifungal activity against Candida albicans MY1055 in DBA/2 mouse candidiasis model assessed as change in CFU per gram of kidney at 25 mg/kg, po bid after 7 days by Target Organ Kidney Assay relative to sham treated control. Format: functional.
For data set [10], the system named is Candida albicans. The experiment in a line: Antifungal activity against Candida albicans MY1055 in DBA/2 mouse candidiasis model assessed as change in CFU per gram of kidney at 12.5 mg/kg, po bid after 4 days by Target Organ Kidney Assay relative to sham treated control. Type of data set: functional.
Data set [11] deals with Candida albicans. The experiment in a line: Antifungal activity against Candida albicans MY1055 in DBA/2 mouse candidiasis model assessed as change in CFU per gram of kidney at 6.25 mg/kg, po bid after 4 days by Target Organ Kidney Assay relative to sham treated control. Type of data set: functional.
The subject of data set [12] is Candida albicans. The experiment in a line: Antifungal activity against Candida albicans MY1055 in DBA/2N mouse candidiasis model assessed as mouse survival at 6.25 mg/kg, po bid after 4 days by Target Organ Kidney Assay relative to sham treated control. Type of data set: functional. The following applies: 96 h.
Data set [13] is described as follows: Oral bioavailability in mouse. Format: ADME, organism-based. The following applies: in vivo.
A short description of data set [14]: AUC (0 to 24 hrs) in DBA/2J mouse at 10 mg/kg, po. Format: ADME, organism-based. Further details: dose 10 mg/kg, time < 24 hr, route oral. The conditions noted are these: in vivo.
The test system of data set [15] is Candida albicans. Nature of the data set: Antifungal activity against Candida albicans MY1055 in DBA/2 mouse candidiasis model assessed as change in CFU per gram of kidney at 25 mg/kg, po bid after 4 days by Target Organ Kidney Assay relative to sham treated control. Type of data set: functional.
The test system of data set [16] is Candida albicans. Nature of the data set: Antifungal activity against Candida albicans MY1055 after 24 hrs by liquid microdilution assay in presence of human serum. Type of data set: functional. The conditions noted are these: MY1055, 24 h.
Another data set deals with T1, Beta-1,3-glucan synthase (Candida albicans, UniProt O13383).
T1 sequence (O13383 whole entry): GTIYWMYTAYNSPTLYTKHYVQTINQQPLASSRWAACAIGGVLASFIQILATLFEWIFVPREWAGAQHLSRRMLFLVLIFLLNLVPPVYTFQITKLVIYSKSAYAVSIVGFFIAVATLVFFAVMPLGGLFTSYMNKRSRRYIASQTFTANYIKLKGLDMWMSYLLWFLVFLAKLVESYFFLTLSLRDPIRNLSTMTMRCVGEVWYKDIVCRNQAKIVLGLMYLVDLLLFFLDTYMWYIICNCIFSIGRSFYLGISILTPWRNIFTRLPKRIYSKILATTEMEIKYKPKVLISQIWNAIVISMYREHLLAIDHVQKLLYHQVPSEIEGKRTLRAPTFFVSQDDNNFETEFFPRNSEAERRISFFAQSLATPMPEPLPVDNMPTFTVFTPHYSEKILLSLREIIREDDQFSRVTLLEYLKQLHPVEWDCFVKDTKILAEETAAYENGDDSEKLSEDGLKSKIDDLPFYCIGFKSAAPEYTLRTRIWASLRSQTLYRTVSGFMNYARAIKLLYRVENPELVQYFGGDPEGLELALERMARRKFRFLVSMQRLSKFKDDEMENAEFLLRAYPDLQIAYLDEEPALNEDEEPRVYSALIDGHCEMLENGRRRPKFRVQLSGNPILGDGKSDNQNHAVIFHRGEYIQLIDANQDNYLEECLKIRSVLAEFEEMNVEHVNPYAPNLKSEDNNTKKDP
Nature of the data set: Displacement of UDP-[3H]glucose from beta-1,3-glucan synthase in Candida albicans MY1055 microsomal membranes incubated for 2 hrs.

In data set [17] the test system is Candida albicans. Nature of the data set: Antifungal activity against Candida albicans MY1055 in DBA/2 mouse candidiasis model assessed as change in CFU per gram of kidney at 6.25 mg/kg, po bid after 7 days by Target Organ Kidney Assay relative to sham treated control. Type of data set: functional.
The test system of data set [18] is Candida albicans. The experiment in a line: Antifungal activity against Candida albicans MY1055 in DBA/2N mouse candidiasis model assessed as mouse survival at 12.5 mg/kg, ip bid after 7 days by Target Organ Kidney Assay relative to sham treated control. The conditions noted are these: 168 h. Type of data set: functional.
For data set [19], the system named is Candida albicans. The experiment in a line: Antifungal activity against Candida albicans MY1055 in DBA/2N mouse candidiasis model assessed as mouse survival at 25 mg/kg, po bid after 7 days by Target Organ Kidney Assay relative to sham treated control. Type of data set: functional. The following applies: 168 h.
Data set [20] relates to Mus musculus. The experiment in a line: AUC (0 to 24 hrs) in DBA/2J mouse assessed as metabolite 13e at 10 mg/kg, po. Type of data set: ADME, organism-based. Further details: dose 10 mg/kg, time < 24 hr, route oral. The following applies: in vivo.

≈ marks a conversion by molar mass, not a printed value.

The term AUC denotes concentration integrated over time. The MIC is the smallest concentration in the dilution series that meets the test's criterion for growth inhibition. The bioavailability is dose-corrected exposure relative to a reference, in per cent. Low readings indicate poor availability, high ones good availability. What is called AUC(0-t) is exposure summed from dosing to a finite time, without extrapolation to infinity. As a reminder, the IC50 is the concentration needed to halve the response being measured. For the compound `CC(C)[C@@H](C)[C@@]1(C)CC[C@]2(C)[C@H]3CC[C@H]4C5(C)COC[C@@]4(C[C@@H](n4nnc(N)n4)[C@@H]5OC[C@@](C)(C(C)C)N(C)C)C3=CC[C@@]2(C)[C@@H]1C(=O)O`, the Activity in the data set with Candida albicans [1] is on record as -2.38 deltalog10CFU; in the data set on Candida albicans [8] it was -3.36 deltalog10CFU; with Candida albicans [9], -2.75 deltalog10CFU; in the data set with Candida albicans [10], -2.5 deltalog10CFU; in the data set with Candida albicans [11] it was -0.7 deltalog10CFU; with Candida albicans [15] it was -2.6 deltalog10CFU. Besides, in the data set with Candida albicans [17], the Activity is given as -1.19 deltalog10CFU. The exposure (AUC) in the data set on Mus musculus [2] was determined as 110 nM·h; in the data set on Mus musculus [20], 1230 nM·h. In addition, the ED99 with Candida albicans [3] stood at 9 mg/kg. The Drug uptake in the data set on Mus musculus [4] is 51.3%. For the same compound, the survival at 12.5 mg/kg with Candida albicans [5] and with Candida albicans [18] was 100% in each case. In addition, the minimal effective concentration in the data set on Aspergillus fumigatus was below 0.03 µg/mL. In addition, the AUC/dose in the data set on Mus musculus [6] turned out to be 0.15 µM·kg·h/mg. In addition, the values for the minimal inhibitory concentration (MIC) in the data set on Candida albicans [7] and in the data set with Candida albicans [16] were 0.25 mg/L (≈ 0.366 µM) and 8 mg/L, respectively. In the data set on Candida albicans [12], the survival at 6.25 mg/kg was 40%. The bioavailability in data set [13] is 17%. Moreover, the area under the curve AUC(0-t) at 24 h in data set [14] worked out at 1270 nM·h. For the same compound, at Beta-1,3-glucan synthase, the 50% inhibitory concentration (IC50) was 0.0132 µM. Also, the survival at 25 mg/kg in the data set on Candida albicans [19] is 100%.

The record behind these values is ChEMBL document CHEMBL3739316, “Novel orally active inhibitors of β-1,3-glucan synthesis derived from enfumafungin” (Bioorg Med Chem Lett, 2015).
